From patent US20060128718A1, “Tetrahydropyridazine derivatives having a pesticidal effect” (priority 2002, published 2006)
Like-named read-outs stand apart in the source and are kept apart here.

Assays:
[1] = system: larvae of the fall armyworm (Spodoptera frugiperda); experiment: Spodoptera frugiperda test (cabbage leaves dipped); assay type: in vivo
Source text: (§1) Spodoptera frugiperda Test To prepare one of the appropriate active ingredient preparations, mix 1 part by weight of the active ingredient with the indicated amount of solvent and emulsifier and dilute the concentrate with emulsifier-containing water to the desired concentration. Treat cabbage leaves (Brassica oleracea) by dipping into the active ingredient preparation of the desired concentration and infesting them with larvae of the fall armyworm (Spodoptera frugiperda) while the leaves are still damp. After the desired time, determine the death rate in %. For these purposes 100% means that all the larvae on the leaves were killed; 0% means that no larvae were killed.

[2] = system: Heliothis armigera larvae; experiment: Heliothis armigera test (soybean sprouts dipped, larvae); assay type: in vivo
Source text: Heliothis armigera Test To prepare one of the appropriate active ingredient preparations, mix 1 part by weight of the active ingredient with the indicated amount of solvent and emulsifier and dilute the concentrate with emulsifier-containing water to the desired concentration. Treat soybean sprouts (Glycine max) by dipping into the active ingredient preparation of the desired concentration and infesting with Heliothis armigera larvae while the leaves are still damp. After the desired time, determine the death rate in %. For these purposes 100% means that all the larvae on the leaves were killed; 0% means that no larvae were killed.

[3] = logP determination by HPLC on reversed phase column (C 18), EEC directive 79/831; assay type: physicochemical; conditions: reversed phase HPLC column (C 18)
Procedure: Determine the logP values given in the table as specified in EEC directive 79/831 ex V.A8 using HPLC (high performance liquid chromatography) in a reversed e column (C 18). Temperature: 43° C.
(a) eluents for determination in the acid range: 0.1% aqueous phosphoric acid, acetonitrile, linear gradient of 10% acetonitrile to 90% acetonitrile—corresponding measurement results are marked with an a) in Table 1.
(b) eluents for determination in the neutral range: 0.01-molar aqueous phosphate buffer solution, acetonitrile, linear gradient of 10% acetonitrile to 90% acetonitrile—corresponding measurement results are marked with a b) [sic] in Table 1.
Calibration is done using unbranched alkane-2-ones (with 3 to 16 carbon atoms), whose logP values are known (determination of the logP values using the retention times via linear interpolation between two sequential ketones).

[4] = system: larvae of the diamondback moth (Plutella xylostella); experiment: Plutella test (cabbage leaves dipped); assay type: in vivo
Source text: as §1, with “Plutella” for “Spodoptera frugiperda”, “infesting” for “infesting them”, “diamondback moth (Plutella xylostella)” for “fall armyworm (Spodoptera frugiperda)”

[5] = system: larvae of the beet armyworm (Spodoptera exigua); experiment: Spodotera exigua test (cabbage leaves dipped); assay type: in vivo
Source text: as §1, with “Spodotera exigua Test” for “Spodoptera frugiperda Test”, “the beet” for “the fall”, “(Spodoptera exigua)” for “(Spodoptera frugiperda)”

[6] = system: larvae of the mustard beetle (Phaedon cochleariae); experiment: Phaedon larvae test (cabbage leaves dipped); assay type: in vivo
Source text: Phaedon Larvae Test To prepare one of the appropriate active ingredient preparations, mix 1 part by weight of the active ingredient with the indicated amount of solvent and emulsifier and dilute the concentrate with emulsifier-containing water to the desired concentration. Treat cabbage leaves (Brassica oleracea) by dipping into the active ingredient preparation of the desired concentration and infesting with larvae of the mustard beetle (Phaedon cochleariae) while the leaves are still damp. After the desired time, determine the death rate in %. For this purpose 100% means that all the beetle larvae on the leaves were killed; 0% means that no beetle larvae were killed.

[7] = 500 ppm active ingredient, after 7d, cabbage leaves

| Structure (SMILES) | Death rate in % after 7d [1, 7] [%] | efficacy (in words) ([1]; Spodoptera frugiperda test) | Death rate in % after 7d ([2]; 500 ppm active ingredient, after 7d, soybean sprouts) [%] | efficacy (in words) ([2]; Heliothis armigera test) | chromatographic logP ([3]; pH 2.3, read-out: logp (pH: 2.3)) | Death rate in % after 7d [4, 7] [%] | efficacy (in words) ([4]; Plutella test) | Death rate in % after 7d [5, 7] [%] | efficacy (in words) ([5]; Spodotera exigua test) | Death rate in % after 7d [6, 7] [%] | efficacy (in words) ([6]; Phaedon larvae test) | chromatographic logP ([3]; pH 2, pH2) |
| --- | --- | --- | --- | --- | --- | --- | --- | --- | --- | --- | --- | --- |
| N#CCN(C(=O)N1CCC(n2cc(Cl)cn2)C(c2cccc(C(F)(F)F)c2)=N1)c1ccc(OC(F)(F)F)cc1 (stereo not drawn) [Example 1, N-cyanomethyl-4-(4-chloropyrazole-1-yl)-1-(4-trifluoromethoxy-phenylamino)-3-(trifluoromethyl-phenyl)-carbonyl-1,4,5,6-tetrahydropyridazine] | 100 | good efficacy | 100 | good efficacy | 4.22 | 100 | good efficacy | 100 | good efficacy | 100 | good efficacy | – |
| N#Cc1cccc(C(=O)C(Br)CCCl)c1 (stereo not drawn) [Example (X-1), 3′-cyano-2-bromo-4-chlorobutyrophenone] | – | – | – | – | – | – | – | – | – | – | – | 3.09 |
